Experimental data taken from ChEMBL document CHEMBL1134176, “Structure-activity relationships of novel anti-malarial agents. Part 2: cinnamic acid derivatives” (Bioorg Med Chem Lett, 2001).

These molecules were tested on Plasmodium falciparum (assay: Inhibitory activity against Plasmodium falciparum Dd2 in erythrocytes).
Format: functional, organism-based

SMILES | IC50
Cc1ccc(CC(=O)Nc2ccc(NC(=O)/C=C/c3ccc(C(F)(F)F)cc3)cc2C(=O)c2ccccc2)cc1 | 5700 nM
Cc1ccc(CC(=O)Nc2ccc(NC(=O)/C=C/c3ccc(C=C(C#N)C#N)cc3)cc2C(=O)c2ccccc2)cc1 | 43000 nM
Cc1ccc(CC(=O)Nc2ccc(NC(=O)/C=C/c3ccccc3)cc2C(=O)c2ccccc2)cc1 | 5800 nM
Cc1ccc(CC(=O)Nc2ccc(NC(=O)CCc3ccccc3)cc2C(=O)c2ccccc2)cc1 | 2700 nM
C[C@@H]1CC[C@H]2[C@@H](C)C(=O)O[C@@H]3O[C@@]4(C)CC[C@@H]1[C@]32OO4 [ARTEMISININ] | 18 nM
O=C1C(O)=C([C@H]2CC[C@H](c3ccc(Cl)cc3)CC2)C(=O)c2ccccc21 [ATOVAQUONE] | 1 nM
CC1(C)N=C(N)N=C(N)N1c1ccc(Cl)cc1 [CYCLOGUANIL] | 2200 nM
CCCCN(CCCC)CCC(O)c1cc2c(Cl)cc(Cl)cc2c2cc(C(F)(F)F)ccc12 (stereo unspecified) [HALOFANTRINE] | 9.3 nM
OC(c1cc(C(F)(F)F)nc2c(C(F)(F)F)cccc12)C1CCCCN1 (stereo unspecified) [MEFLOQUINE] | 57 nM
CCc1nc(N)nc(N)c1-c1ccc(Cl)cc1 [PYRIMETHAMINE] | 2500 nM
C=C[C@H]1CN2CC[C@H]1C[C@H]2[C@H](O)c1ccnc2ccc(OC)cc12 [QUININE] | 380 nM

Second part, the molecule after the results:

IC50 | SMILES
1200 nM | Cc1ccc(CC(=O)Nc2ccc(NC(=O)/C=C/c3ccc(C(C)C)cc3)cc2C(=O)c2ccccc2)cc1
40000 nM | Cc1ccc(CC(=O)Nc2ccc(NC(=O)/C=C/c3ccc(C=O)cc3)cc2C(=O)c2ccccc2)cc1
1200 nM | CCc1ccc(/C=C/C(=O)Nc2ccc(NC(=O)Cc3ccc(C)cc3)c(C(=O)c3ccccc3)c2)cc1
3000 nM | Cc1ccc(CC(=O)Nc2ccc(NC(=O)/C=C/c3ccc(C(C)(C)C)cc3)cc2C(=O)c2ccccc2)cc1
> 100000 nM | Cc1ccc(CC(=O)Nc2ccc(NC(=O)/C=C/c3ccc(C#N)cc3)cc2C(=O)c2ccccc2)cc1
6500 nM | Cc1ccc(CC(=O)Nc2ccc(NC(=O)/C=C/c3ccc([N+](=O)[O-])cc3)cc2C(=O)c2ccccc2)cc1
5500 nM | Cc1ccc(CC(=O)Nc2ccc(NC(=O)/C=C/c3ccc(N)cc3)cc2C(=O)c2ccccc2)cc1
1400 nM | Cc1ccc(/C=C/C(=O)Nc2ccc(NC(=O)Cc3ccc(C)cc3)c(C(=O)c3ccccc3)c2)cc1
5500 nM | Cc1ccc(CC(=O)Nc2ccc(NC(=O)/C=C/c3ccc(Cl)cc3)cc2C(=O)c2ccccc2)cc1
1300 nM | COc1ccc(/C=C/C(=O)Nc2ccc(NC(=O)Cc3ccc(C)cc3)c(C(=O)c3ccccc3)c2)cc1
1000 nM | COC(=O)c1ccc(/C=C/C(=O)Nc2ccc(NC(=O)Cc3ccc(C)cc3)c(C(=O)c3ccccc3)c2)cc1
3200 nM | Cc1ccc(CC(=O)Nc2ccc(NC(=O)/C=C/c3ccc(Br)cc3)cc2C(=O)c2ccccc2)cc1
1100 nM | CCCCOc1ccc(/C=C/C(=O)Nc2ccc(NC(=O)Cc3ccc(C)cc3)c(C(=O)c3ccccc3)c2)cc1
850 nM | CCOc1ccc(/C=C/C(=O)Nc2ccc(NC(=O)Cc3ccc(C)cc3)c(C(=O)c3ccccc3)c2)cc1
200 nM | CCCOc1ccc(/C=C/C(=O)Nc2ccc(NC(=O)Cc3ccc(C)cc3)c(C(=O)c3ccccc3)c2)cc1
